Holding throughout (type): physicochemical
The nature of series [1]: Particle size distribution by laser diffraction, Spraytec with inhalation cell (simulated breathing). To be noted: agglomerates as at the exit of the DPI. The text has this:
However, it may be desirable for unstable (redispersible) agglomerates to be formed in the powder, and the size of the agglomerates may be as large as 10 µm or more. The size of particles in the powder, when considering the agglomerates, is to be taken as the size of the individual particles making up the agglomerate. The sizes of the individual particles and of the agglomerates may be determined using a suitable laser light diffraction techniques. For example, the higher compressed air values applied in the dispersion unit of the Mastersizer 2000® (Malvern, U.K.) (up to 4 bar), permit all the agglomerates to break down, especially for micron-sized powders, as is the case for DPI formulations. […] This allows the size properties of DPIs to be measured under simulated breathing conditions. For each formulation, the particle size distribution is measured by laser diffractometry, using a dry sampling system with a suitable SOP (Standard Operating Procedure), (Scirocco®, Mastersizer 2000, Malvern, UK) and a Spraytec, (Malvern). The particle size distribution measured with the Mastersizer 2000, Scirocco (Malvern) gives an indication of the size distribution of the individual particles of the powder composition as the powder agglomerates are broken down during the measuring process. […]

Series [2] is described as follows: Particle size distribution by laser diffraction, Mastersizer 2000 with dry sampling (Scirocco). To be noted: individual particles, dry powder. The text has this:
However, it may be desirable for unstable (redispersible) agglomerates to be formed in the powder, and the size of the agglomerates may be as large as 10 µm or more. The size of particles in the powder, when considering the agglomerates, is to be taken as the size of the individual particles making up the agglomerate. The sizes of the individual particles and of the agglomerates may be determined using a suitable laser light diffraction techniques. For example, the higher compressed air values applied in the dispersion unit of the Mastersizer 2000® (Malvern, U.K.) (up to 4 bar), permit all the agglomerates to break down, especially for micron-sized powders, as is the case for DPI formulations. […] For each formulation, the particle size distribution is measured by laser diffractometry, using a dry sampling system with a suitable SOP (Standard Operating Procedure), (Scirocco®, Mastersizer 2000, Malvern, UK) and a Spraytec, (Malvern). […] The particle size distribution measured with the Mastersizer 2000, Scirocco (Malvern) gives an indication of the size distribution of the individual particles of the powder composition as the powder agglomerates are broken down during the measuring process. […]

Series [3] can be described thus: In vitro deposition / fine particle assessment with Multi-stage Liquid Impinger (MsLI), Aerolyzer device. To be noted: loaded dose=15mg; for FPD: Fine Particle Dose, aerodynamic diameter inferior to 5 µm. Also on record: Metered dose / Device / Throat / Stage 1 / Stage 2 / Stage 3 / Stage 4 / Filter: unit not given here. On the procedure: The Fine Particle Dose (FPD) has been determined by the method described in the European Pharmacopoeia 4 for the aerodynamic assessment of fine particle, using Apparatus C - Multi-stage Liquid Impinger (MsLI). A dry powder inhalation device (Aerolyzer®, Novartis, Switzerland) was filled with a No. 3 HPMC capsule (Capsugel, France) loaded with 15 mg powder. The flow rate was adjusted to a pressure drop of 4 kPa, as typical for inspiration by a patient, resulting in a flow rate of 100 l/min during 2.4 seconds. At least 3 Fine Particle Dose (FPD) determinations were performed on each formulation and analysis was carried out by a suitable and validated analytical HPLC method. In order to increase the UV absorptivity of the molecule, a derivatization method was applied. The suitable and validated quantification method is described in the USP 25. The HPLC system consisted of a High Performance Liquid Chromatography system (HP 1100 series, Agilent technologies, Belgium), equipped with a quartenary pump, an autosampler and a variable wavelength UV detector set at 365 nm. The separation system was a 30 cm x 3.9 mm stainless steel (5 µm particle size) reversed-phase C18 column (Alltima, Alltech, Belgium). Samples of 20 µl volume were injected. The mobile phase was prepared by dissolving 2 g of Tris(hydroxymethyl) aminomethane in 800 ml of water. After this, 20 ml of H2SO4 1 N was added and then the solution was diluted with acetonitrile to obtain 2 l, mixed and passed through a filter of 0.2 µm porosity. The flow rate was 1.2 ml/min. The mass of test substance retained at each stage was determined from the HPLC analysis of the recovered solutions. Starting at the filter, a cumulative mass deposition (undersize in percentage) vs. cut-off diameter of the respective stages was derived and the FPD was calculated by interpolating the mass of active ingredient less than 5 µm. […] It is considered to be directly proportional to the amount of drug able to reach the pulmonary tract in vivo, and consequently, the higher the value FPD, the higher the estimated lung deposition. […] Table 2: In vitro deposition study, with formulation given in example 1 vs. micronized tobramycin (raw material) (loaded dose=15mg, n=3).

Take `NC[C@H]1O[C@H](O[C@H]2[C@H](O)[C@@H](O[C@H]3O[C@H](CO)[C@@H](O)[C@H](N)[C@H]3O)[C@H](N)C[C@@H]2N)[C@H](N)C[C@@H]1O` [Micronized tobramycin, tobramycin]: the “particles having a diameter below 5.0 µm” value in series [1] is 72%. The “mass median diameter (d(0.5))” value in series [2] is “about 1.3 µm”. In series [3] (n=3), this compound returned an FPD of 5.5 ± 0.9 mg and a Metered dose of 12.9 ± 0.3. Further, the FPD entry in series [3] (n=3, listed as micronized tobramycin) is “around 5.5 mg”. In addition, in series [3] (mass deposited, n=3), the Filter came out at 1.4 ± 0.3, the “Stage 1” value is 0.9 ± 0.3, the “Stage 2” value is reported as 0.6 ± 0.4 and the “Stage 3” value worked out at 2.1 ± 0.9. For the same compound, in series [3] (mass deposited, n=3), the “Stage 4” value was 1.7 ± 0.6 and the Throat is 0.3 ± 0.1. The same compound registered a Device in series [3] (mass deposited, n=3, 100 l/min during 2.4 seconds) of 6.0 ± 0.7.

Values taken from EP2050437A1, “Improved pharmaceutical dry powder compositions for inhalation” (Laboratoires SMB, priority 2007, dated 2009).
